Laboratory results from PubChem BioAssay (NCI).
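Five concentrations, 48 hours, 96-well plates. TGI: total growth inhibition.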

What was measured:
Assay in all cases: DTP human tumour cell line panel, 48 h
HOP-18 NSCLC = tested on: HOP-18 NSCLC
HCC-2998 colon = tested on: HCC-2998 colon
KM20L2 colon = tested on: KM20L2 colon
SNB-75 CNS = tested on: SNB-75 CNS
XF 498 CNS = tested on: XF 498 CNS
DMS 114 small cell lung = tested on: DMS 114 small cell lung
SW-620 colon = tested on: SW-620 colon
UACC-257 melanoma = tested on: UACC-257 melanoma
SNB-19 CNS = tested on: SNB-19 CNS
LOX IMVI melanoma = tested on: LOX IMVI melanoma
OVCAR-5 ovarian = tested on: OVCAR-5 ovarian
IGROV1 ovarian = tested on: IGROV1 ovarian
KM12 colon = tested on: KM12 colon
HCT-15 colon = tested on: HCT-15 colon
DMS 273 small cell lung = tested on: DMS 273 small cell lung
SK-MEL-28 melanoma = tested on: SK-MEL-28 melanoma
M19-MEL melanoma = tested on: M19-MEL melanoma
HOP-62 NSCLC = tested on: HOP-62 NSCLC
UACC-62 melanoma = tested on: UACC-62 melanoma
A498 renal = tested on: A498 renal
OVCAR-4 ovarian = tested on: OVCAR-4 ovarian
SF-539 CNS = tested on: SF-539 CNS
SF-268 CNS = tested on: SF-268 CNS
UO-31 renal = tested on: UO-31 renal
HCT-116 colon = tested on: HCT-116 colon
OVCAR-3 ovarian = tested on: OVCAR-3 ovarian
SK-OV-3 ovarian = tested on: SK-OV-3 ovarian
SK-MEL-2 melanoma = tested on: SK-MEL-2 melanoma
M14 melanoma = tested on: M14 melanoma
MALME-3M melanoma = tested on: MALME-3M melanoma
NCI-H23 lung = tested on: NCI-H23 lung
CAKI-1 renal = tested on: CAKI-1 renal
HT29 colon = tested on: HT29 colon
TK-10 renal = tested on: TK-10 renal
NCI-H460 lung = tested on: NCI-H460 lung
CCRF-CEM leukemia = tested on: CCRF-CEM leukemia
RPMI-8226 leukemia = tested on: RPMI-8226 leukemia
A549 NSCLC = tested on: A549 NSCLC
OVCAR-8 ovarian = tested on: OVCAR-8 ovarian
COLO 205 colon = tested on: COLO 205 colon
ACHN renal = tested on: ACHN renal
NCI-H226 lung = tested on: NCI-H226 lung
U251 CNS = tested on: U251 CNS
SK-MEL-5 melanoma = tested on: SK-MEL-5 melanoma
SNB-78 CNS = tested on: SNB-78 CNS
K-562 leukemia = tested on: K-562 leukemia
786-0 renal = tested on: 786-0 renal
SF-295 CNS = tested on: SF-295 CNS
HOP-92 NSCLC = tested on: HOP-92 NSCLC
EKVX NSCLC = tested on: EKVX NSCLC
SN12C renal = tested on: SN12C renal
DLD-1 colon = tested on: DLD-1 colon

Measured: TGI

Cc1ccccc1Cn1nc2ccccc2cc1=O
> 100 µM: all assays above
